# Test results published in patent US20210386367A1, “DEVICES AND SYSTEMS FOR GASTROINTESTINAL MICROBIOME DETECTION AND MANIPULATION” (Progenity, Inc., priority 2018, published 2021).
# Legend:
# Format in all cases: cell-based
# [1] = system: Enterococcus faecalis clinical isolates; assay: MIC distribution against clinical isolates; settings: 50 E. faecalis isolates
# Text: (§1) As used herein, “minimum inhibitory concentration” or “MIC” refers to the lowest concentration of an antimicrobial agent, for example, an antimicrobial agent as described herein, required to inhibit the growth of an organism.
# (§2) Many susceptibility testing methods are known in the art and can be used as described herein (see, e.g., Jorgensen and Ferraro (2009) Clinical Infectious Diseases 49:1749-1755; and Maurer et al. (2017) Infectious Disease Reports 9:6839; the entire contents of each of the foregoing are incorporated herein by reference). For example, antimicrobial susceptibility can be determined using conventional culture based methods such as the broth or agar dilution test. In these dilution tests, the bacterial isolate of interest is inoculated onto different media that include serial dilutions of an antimicrobial agent, and incubated under appropriate conditions (e.g., overnight at 37° C.) to allow for growth to occur. Following the incubation period, the media is examined to determine bacterial growth. The lowest concentration of antibiotic that prevents growth represents the minimal inhibitory concentration (MIC). Broth dilution tests can be miniaturized and mechanized allowing for reproducibility and high throughput.
# [2] = system: Staphylococcus aureus clinical isolates; assay: MIC distribution against clinical isolates; settings: 50 S. aureus isolates
# Text: as §1, §2
# Streptococcus pyogenes = assay: Broth microdilution MIC, 19 clinical isolates; settings: for MIC50 / MIC90: Streptococcus pyogenes; for MIC50: read-out: MIC50; for MIC90: read-out: MIC90
# Experimental: Minimal inhibitory concentration (MIC) values were determined by broth microdilution or agar dilution in accordance with guidelines from the Clinical and Laboratory Standards Institute (CLSI; (1) “Methods for Dilution Antimicrobial Susceptibility Tests for Bacteria That Grow Aerobically; Approved Standard; 11th ed.” CLSI standard M07-A11, 2018; (2) “Performance Standards for Antimicrobial Susceptibility Testing; Twenty-Eighth Informational Supplement,” CLSI document M100-S28, 2018; and (3) “Methods for Antimicrobial Susceptibility Testing of Anaerobic Bacteria; Approved Standard—Eighth Edition,” CLSI document M11-A8, 2012).
# Tested aerobically by broth microdilution: • Escherichia coli, n=50 • Klebsiella spp., n=50 • Pseudomonas aeruginosa, n=50 • Streptococcus spp., n=50 • Staphylococcus aureus, n=50 • Enterococcus faecalis, n=50 • Enterobacter aerogenes, n=50 • Proteus mirabilis, n=50
# Broth microdilution testing of aerobic bacteria was conducted in cation-adjusted Mueller Hinton broth (MHBII). For testing streptococci, lysed horse blood (LHB) was added to MHBII broth at a final concentration of 3%. Where LHB was used, it was added after filtering.
# Broth microdilution susceptibility testing in 96-well microplates was conducted in accordance with CLSI methods (1) and (2). Automated liquid handlers were used to conduct serial dilutions and liquid transfers, including the Multidrop 384 (Labsystems, Helsinki, Finland), Biomek 2000, and the Biomek FX (Beckman Coulter, Fullerton, Calif.). All wells in columns 2 through 12 of a standard 96-well microdilution plate (Costar 3795) were filled with 150 μL of the appropriate diluent. Then, 300 μL of the test agents were added to the wells of column 1 of the plates at 100× the highest final concentration to be tested. Serial two-fold dilutions were made across the rows through column 11 using the Biomek 2000. The wells of column 12 contained no drug and served as the growth control wells. This plate served as the “mother plate” from which MIC assay plates or “daughter plates” were made.
# The daughter plates were loaded with 190 μL per well of the appropriate medium using the Multidrop 384. The daughter plates were created using the Biomek FX which transferred 2 μL of drug solution from each well of a mother plate to each corresponding well of the daughter plate in a single step. A standardized inoculum of each test organism was prepared per CLSI methods (1) to equal a 0.5 McFarland standard, followed by a dilution of 1:20 for aerobes and 1:10 for anaerobes. The plates were then inoculated with 10 μL of the diluted inoculum using the Biomek 2000 from low to high drug concentration, resulting in a final concentration of approximately 5×10^5 CFU/mL per well. An un-inoculated plate was incubated in parallel for each medium for the purpose of assessing solubility of the drug in the test media.
# Inoculated plates were stacked 3 or 4 high, covered with a sterile lid on the top plate, placed into boxes with CO2 planchets (streptococci) or plastic bags (all other isolates). Plates were incubated at 35° C. for 16-24 hr in ambient air for aerobes or for 42-48 hr in the anaerobic environment of the Bactron II anaerobe chamber (Sheldon Manufacturing Co.; Cornelius, Oreg.). Following incubation, the microplates were removed from the incubator and viewed from the bottom using a plate viewer. The MIC values were read and recorded as the lowest concentration of drug that inhibited visible growth of the organism as per CLSI methods (1) and (2).
SMILES,Cumulative percentage of isolates inhibited at MIC ([1]; MIC 1 μg/mL) [%],Number of test isolates at MIC ([1]; MIC 1 μg/mL),Cumulative percentage of isolates inhibited at MIC ([1]; MIC 16 μg/mL) [%],Number of test isolates at MIC ([1]; MIC 16 μg/mL),Cumulative percentage of isolates inhibited at MIC ([2]; MIC 2 μg/mL) [%],Number of test isolates at MIC ([2]; MIC 2 μg/mL),Cumulative percentage of isolates inhibited at MIC ([2]; MIC 4 μg/mL) [%],Number of test isolates at MIC ([2]; MIC 4 μg/mL),Cumulative percentage of isolates inhibited at MIC ([2]; MIC 8 μg/mL) [%],Number of test isolates at MIC ([2]; MIC 8 μg/mL),Number of test isolates at MIC ([2]; MIC >16 μg/mL),% S (Streptococcus pyogenes) [%],MIC range (Streptococcus pyogenes),Mode (Streptococcus pyogenes) [µg/mL],MIC50 (Streptococcus pyogenes) [µg/mL],MIC90 (Streptococcus pyogenes) [µg/mL],Cumulative percentage of isolates inhibited at MIC ([1]; MIC 0.5 μg/mL) [%],Number of test isolates at MIC ([1]; MIC 0.5 μg/mL),Cumulative percentage of isolates inhibited at MIC ([1]; MIC 2 μg/mL) [%],Number of test isolates at MIC ([1]; MIC 2 μg/mL),further results
CO/N=C(\C(=O)N[C@@H]1C(=O)N2C(C(=O)O)=C(CSc3nc(=O)c(=O)[nH]n3C)CS[C@H]12)c1csc(N)n1 [ceftriaxone],2.0,1,4.0,1,6.0,3,38.0,16,44.0,3,2,100,0.015 to 0.06 µg/mL,0.015,0.015,0.03,,,,,Cumulative percentage of isolates inhibited at MIC ([1]; MIC 64 μg/mL): 10.0%; Number of test isolates at MIC ([1]; MIC 64 μg/mL): 3; Cumulative percentage of isolates inhibited at MIC ([1]; MIC >64 μg/mL): 100.0%; Number of test isolates at MIC ([1]; MIC >64 μg/mL): 45; Number of test isolates at MIC ([2]; MIC 0.008 μg/mL): 0; Cumulative percentage of isolates inhibited at MIC ([2]; MIC 32 μg/mL): 52.0%; Number of test isolates at MIC ([2]; MIC 32 μg/mL): 4; Cumulative percentage of isolates inhibited at MIC ([2]; MIC 64 μg/mL): 56.0%; Number of test isolates at MIC ([2]; MIC 64 μg/mL): 2; Cumulative percentage of isolates inhibited at MIC ([2]; MIC >64 μg/mL): 100.0%; Number of test isolates at MIC ([2]; MIC >64 μg/mL): 22
C[C@@H](O)[C@H]1C(=O)N2C(C(=O)O)=C(S[C@@H]3CN[C@H](C(=O)N(C)C)C3)[C@H](C)[C@H]12 [meropenem],8.0,3,98.0,1,56.0,2,78.0,11,94.0,8,2,100,≤0.002-0.03^ μg/mL,0.004,0.004,0.008,2.0,1,24.0,8,Cumulative percentage of isolates inhibited at MIC ([1]; MIC 4 μg/mL): 72.0%; Number of test isolates at MIC ([1]; MIC 4 μg/mL): 24; Cumulative percentage of isolates inhibited at MIC ([1]; MIC 8 μg/mL): 96.0%; Number of test isolates at MIC ([1]; MIC 8 μg/mL): 12; Cumulative percentage of isolates inhibited at MIC ([1]; MIC >16 μg/mL): 100.0%; Number of test isolates at MIC ([1]; MIC >16 μg/mL): 1; Cumulative percentage of isolates inhibited at MIC ([2]; MIC 0.06 μg/mL): 12.0%; Number of test isolates at MIC ([2]; MIC 0.06 μg/mL): 6; Cumulative percentage of isolates inhibited at MIC ([2]; MIC 0.5 μg/mL): 46.0%; Number of test isolates at MIC ([2]; MIC 0.5 μg/mL): 1; Cumulative percentage of isolates inhibited at MIC ([2]; MIC 1 μg/mL): 52.0%; Number of test isolates at MIC ([2]; MIC 1 μg/mL): 3; Cumulative percentage of isolates inhibited at MIC ([2]; MIC 16 μg/mL): 96.0%; Number of test isolates at MIC ([2]; MIC 16 μg/mL): 1; Cumulative percentage of isolates inhibited at MIC ([2]; MIC >16 μg/mL): 100.0%
COc1c(N2C[C@@H]3CCCN[C@@H]3C2)c(F)cc2c(=O)c(C(=O)O)cn(C3CC3)c12 [moxifloxacin],,,,,94.0,5,96.0,1,98.0,1,,,0.06 to 0.5 µg/mL,0.12,0.12,0.25,52.0,4,54.0,1,Cumulative percentage of isolates inhibited at MIC ([1]; MIC 0.06 μg/mL): 2.0%; Number of test isolates at MIC ([1]; MIC 0.06 μg/mL): 1; Cumulative percentage of isolates inhibited at MIC ([1]; MIC 4 μg/mL): 56.0%; Number of test isolates at MIC ([1]; MIC 4 μg/mL): 1; Cumulative percentage of isolates inhibited at MIC ([1]; MIC 8 μg/mL): 66.0%; Number of test isolates at MIC ([1]; MIC 8 μg/mL): 5; Cumulative percentage of isolates inhibited at MIC ([1]; MIC >8 μg/mL): 100.0%; Number of test isolates at MIC ([1]; MIC >8 μg/mL): 17; Cumulative percentage of isolates inhibited at MIC ([2]; MIC 0.015 μg/mL): 14.0%; Number of test isolates at MIC ([2]; MIC 0.015 μg/mL): 7; Cumulative percentage of isolates inhibited at MIC ([2]; MIC 0.03 μg/mL): 30.0%; Number of test isolates at MIC ([2]; MIC 0.03 μg/mL): 8; Cumulative percentage of isolates inhibited at MIC ([2]; MIC 0.06 μg/mL): 48.0%; Number of test isolates at MIC ([2]; MIC 0.06 μg/mL): 9; Number of test isolates at MIC ([2]; MIC 0.5 μg/mL): 4; Cumulative percentage of isolates inhibited at MIC ([2]; MIC 1 μg/mL): 84.0%; Number of test isolates at MIC ([2]; MIC 1 μg/mL): 12; Cumulative percentage of isolates inhibited at MIC ([2]; MIC >8 μg/mL): 100.0%; Number of test isolates at MIC ([2]; MIC >8 μg/mL): 1; Number of test isolates at MIC ([2]; MIC […]): 1
